Test results from ChEMBL document CHEMBL1138341, “(S)-N-{3-[1-cyclopropyl-1-(2,4-difluoro-phenyl)-ethyl]-1H-indol-7-yl}-methanesulfonamide: a potent, nonsteroidal, functional antagonist of the mineralocorticoid receptor” (J Med Chem, 2007).
Active and inactive are the calls of the source. The rule behind the calls is not given here.

Legend:
Progesterone receptor = molecular target: T1, Progesterone receptor (Homo sapiens, UniProt P06401); assay: Binding affinity to human progesterone receptor
T1 sequence (P06401 whole entry): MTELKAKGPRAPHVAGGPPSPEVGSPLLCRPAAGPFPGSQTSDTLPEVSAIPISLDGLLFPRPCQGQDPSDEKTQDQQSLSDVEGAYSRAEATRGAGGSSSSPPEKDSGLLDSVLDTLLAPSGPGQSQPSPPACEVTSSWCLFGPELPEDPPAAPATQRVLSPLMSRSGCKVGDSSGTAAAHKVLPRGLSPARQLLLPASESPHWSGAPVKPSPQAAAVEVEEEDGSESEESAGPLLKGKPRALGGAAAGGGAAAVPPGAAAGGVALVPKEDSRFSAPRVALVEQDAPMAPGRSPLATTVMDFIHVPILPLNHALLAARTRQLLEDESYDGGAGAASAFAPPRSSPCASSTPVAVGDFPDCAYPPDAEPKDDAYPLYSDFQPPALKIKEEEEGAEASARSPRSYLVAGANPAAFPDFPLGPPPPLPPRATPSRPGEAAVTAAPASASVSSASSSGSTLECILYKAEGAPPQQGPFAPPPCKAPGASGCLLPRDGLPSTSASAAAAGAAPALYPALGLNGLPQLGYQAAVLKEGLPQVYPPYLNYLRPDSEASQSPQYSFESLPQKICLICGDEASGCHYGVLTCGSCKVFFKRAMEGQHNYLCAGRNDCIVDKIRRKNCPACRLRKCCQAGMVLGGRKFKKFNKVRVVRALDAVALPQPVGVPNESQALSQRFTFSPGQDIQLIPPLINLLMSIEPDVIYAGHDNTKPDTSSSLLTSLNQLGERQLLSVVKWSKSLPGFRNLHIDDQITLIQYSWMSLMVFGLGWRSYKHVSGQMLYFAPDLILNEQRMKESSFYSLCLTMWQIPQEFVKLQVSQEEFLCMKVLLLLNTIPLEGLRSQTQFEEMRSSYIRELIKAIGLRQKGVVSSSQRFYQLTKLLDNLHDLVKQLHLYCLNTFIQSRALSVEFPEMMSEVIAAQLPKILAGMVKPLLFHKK

[1] = molecular target: T2, Mineralocorticoid receptor (Homo sapiens, UniProt P08235); assay: Binding affinity to human mineralocorticoid receptor
T2 sequence (P08235 whole entry): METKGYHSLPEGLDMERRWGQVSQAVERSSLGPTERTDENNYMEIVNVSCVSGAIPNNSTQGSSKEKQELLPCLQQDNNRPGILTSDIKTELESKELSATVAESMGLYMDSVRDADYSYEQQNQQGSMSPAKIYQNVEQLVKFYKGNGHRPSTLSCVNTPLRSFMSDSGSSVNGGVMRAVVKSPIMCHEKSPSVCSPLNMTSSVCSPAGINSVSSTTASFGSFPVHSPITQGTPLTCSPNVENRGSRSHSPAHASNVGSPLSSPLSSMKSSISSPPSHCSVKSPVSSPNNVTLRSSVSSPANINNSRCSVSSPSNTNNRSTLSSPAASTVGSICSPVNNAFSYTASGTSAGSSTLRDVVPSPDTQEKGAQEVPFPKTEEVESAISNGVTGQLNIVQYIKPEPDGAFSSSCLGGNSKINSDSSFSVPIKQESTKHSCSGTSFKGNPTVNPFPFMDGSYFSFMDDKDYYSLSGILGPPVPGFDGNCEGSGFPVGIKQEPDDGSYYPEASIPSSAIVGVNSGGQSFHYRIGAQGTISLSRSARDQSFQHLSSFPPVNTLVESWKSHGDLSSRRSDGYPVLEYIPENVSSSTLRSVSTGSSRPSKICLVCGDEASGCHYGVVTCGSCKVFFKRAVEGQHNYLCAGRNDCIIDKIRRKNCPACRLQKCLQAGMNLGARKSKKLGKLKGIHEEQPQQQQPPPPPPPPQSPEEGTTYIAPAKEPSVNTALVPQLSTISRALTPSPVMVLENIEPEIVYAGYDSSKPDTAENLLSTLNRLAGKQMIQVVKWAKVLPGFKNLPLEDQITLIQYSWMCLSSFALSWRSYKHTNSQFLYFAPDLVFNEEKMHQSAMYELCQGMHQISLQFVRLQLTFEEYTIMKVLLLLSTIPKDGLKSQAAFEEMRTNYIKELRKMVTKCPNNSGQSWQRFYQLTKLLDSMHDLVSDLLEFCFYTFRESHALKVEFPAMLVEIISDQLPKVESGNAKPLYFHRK

Glucocorticoid receptor = molecular target: T3, Glucocorticoid receptor (Homo sapiens, UniProt P04150); assay: Binding affinity to human glucocorticoid receptor
T3 sequence (P04150 whole entry): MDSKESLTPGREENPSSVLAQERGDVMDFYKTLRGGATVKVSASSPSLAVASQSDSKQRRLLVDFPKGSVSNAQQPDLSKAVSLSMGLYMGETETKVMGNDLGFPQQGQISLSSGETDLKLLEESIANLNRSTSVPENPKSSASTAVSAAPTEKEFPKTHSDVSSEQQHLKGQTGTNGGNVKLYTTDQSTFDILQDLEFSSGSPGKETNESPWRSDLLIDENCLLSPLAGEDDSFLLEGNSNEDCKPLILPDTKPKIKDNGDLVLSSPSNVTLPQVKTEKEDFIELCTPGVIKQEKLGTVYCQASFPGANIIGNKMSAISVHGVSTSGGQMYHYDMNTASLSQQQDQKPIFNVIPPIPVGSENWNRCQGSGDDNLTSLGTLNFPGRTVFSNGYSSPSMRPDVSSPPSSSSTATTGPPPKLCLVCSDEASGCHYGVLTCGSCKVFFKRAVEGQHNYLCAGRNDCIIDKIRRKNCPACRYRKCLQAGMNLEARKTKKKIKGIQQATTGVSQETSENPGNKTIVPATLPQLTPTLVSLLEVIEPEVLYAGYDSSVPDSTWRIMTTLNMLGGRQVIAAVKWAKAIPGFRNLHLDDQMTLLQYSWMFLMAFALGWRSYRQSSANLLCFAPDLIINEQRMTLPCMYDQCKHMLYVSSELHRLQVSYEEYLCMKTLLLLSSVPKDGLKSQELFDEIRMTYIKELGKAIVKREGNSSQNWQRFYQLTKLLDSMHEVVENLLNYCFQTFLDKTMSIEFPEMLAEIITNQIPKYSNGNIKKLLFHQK

[2] = molecular target: T4, Mineralocorticoid receptor (Homo sapiens) (UniProt P08235); assay: Antagonist activity at human mineralocorticoid receptor expressed in COS7 cells after 24 hrs by luciferase reporter gene assay; assay type: functional, cell-based; conditions: COS-7
T4 sequence (whole entry): T2 sequence (P08235 whole entry)

Rattus norvegicus [3] = assay: Reduction in aldosterone-induced hypertension in salt-loaded uni-nephrectomized Sprague-Dawley rat at 30 mg/kg, po qd after 14 days; assay type: functional, organism-based; set-up: dose 30 mg/kg
Estrogen receptor = molecular target: T5, Estrogen receptor (Homo sapiens, UniProt P03372); assay: Binding affinity to human estrogen receptor
T5 sequence (P03372 whole entry): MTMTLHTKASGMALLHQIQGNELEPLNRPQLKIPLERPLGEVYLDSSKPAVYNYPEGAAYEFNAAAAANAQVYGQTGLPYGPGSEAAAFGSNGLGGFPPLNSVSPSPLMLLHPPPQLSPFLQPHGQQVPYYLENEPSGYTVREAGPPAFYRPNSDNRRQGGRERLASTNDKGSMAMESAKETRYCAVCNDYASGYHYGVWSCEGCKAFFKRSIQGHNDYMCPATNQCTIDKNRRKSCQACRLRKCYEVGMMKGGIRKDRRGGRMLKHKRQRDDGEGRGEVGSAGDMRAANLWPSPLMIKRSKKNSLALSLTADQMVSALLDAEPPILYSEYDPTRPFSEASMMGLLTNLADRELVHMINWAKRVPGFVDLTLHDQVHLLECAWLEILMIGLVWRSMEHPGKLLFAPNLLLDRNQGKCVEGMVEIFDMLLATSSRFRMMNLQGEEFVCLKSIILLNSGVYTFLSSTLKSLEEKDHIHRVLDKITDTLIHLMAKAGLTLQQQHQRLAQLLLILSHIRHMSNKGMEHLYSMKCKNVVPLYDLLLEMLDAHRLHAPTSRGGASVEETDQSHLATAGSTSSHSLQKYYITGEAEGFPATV

Androgen receptor = molecular target: T6, Androgen receptor (Homo sapiens, UniProt P10275); assay: Binding affinity to human androgen receptor
T6 sequence (P10275 whole entry): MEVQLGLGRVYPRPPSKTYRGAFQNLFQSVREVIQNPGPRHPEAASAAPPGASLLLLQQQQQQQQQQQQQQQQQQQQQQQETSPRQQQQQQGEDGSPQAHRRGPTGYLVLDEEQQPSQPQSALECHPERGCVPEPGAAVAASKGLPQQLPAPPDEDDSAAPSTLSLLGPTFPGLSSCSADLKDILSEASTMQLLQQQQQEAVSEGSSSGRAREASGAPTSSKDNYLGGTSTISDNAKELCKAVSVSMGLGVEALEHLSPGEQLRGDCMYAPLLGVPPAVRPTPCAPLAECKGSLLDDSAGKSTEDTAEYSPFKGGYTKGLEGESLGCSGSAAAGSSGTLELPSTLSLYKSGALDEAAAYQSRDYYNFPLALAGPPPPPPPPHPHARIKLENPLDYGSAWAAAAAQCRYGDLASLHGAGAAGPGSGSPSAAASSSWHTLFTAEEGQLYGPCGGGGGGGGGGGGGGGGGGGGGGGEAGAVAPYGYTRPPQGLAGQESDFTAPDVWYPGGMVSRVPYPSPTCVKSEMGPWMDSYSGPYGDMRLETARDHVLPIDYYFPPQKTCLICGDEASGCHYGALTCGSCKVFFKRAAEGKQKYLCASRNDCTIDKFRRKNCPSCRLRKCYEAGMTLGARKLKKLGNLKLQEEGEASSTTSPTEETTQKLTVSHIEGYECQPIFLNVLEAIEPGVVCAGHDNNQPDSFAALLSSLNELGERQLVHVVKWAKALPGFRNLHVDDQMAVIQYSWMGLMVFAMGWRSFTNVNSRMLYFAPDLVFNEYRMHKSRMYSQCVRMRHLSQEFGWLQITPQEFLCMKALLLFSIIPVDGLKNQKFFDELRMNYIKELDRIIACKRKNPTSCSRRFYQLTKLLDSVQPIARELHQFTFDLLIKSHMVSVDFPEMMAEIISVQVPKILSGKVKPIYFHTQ

Rattus norvegicus [4] = assay: Reduction in aldosterone-induced hypertension in salt-loaded uni-nephrectomized Sprague-Dawley rat at 3 mg/kg, po qd after 14 days; assay type: functional, organism-based; set-up: dose 3 mg/kg

SMILES	Ki (Progesterone receptor)	Ki [1]	Ki (Glucocorticoid receptor)	Kb [2]	Activity (Rattus norvegicus [3])	Ki (Estrogen receptor)	Ki (Androgen receptor)	Activity (Rattus norvegicus [4])
COC(=O)[C@@H]1CC2=CC(=O)CC[C@]2(C)C2C1C1CC[C@@]3(CCC(=O)O3)[C@@]1(C)[C@H]1O[C@@H]21 (stereo partly specified) [EPIERENONE]	29400 nM	124 nM	1760 nM	189 nM	Active	> 1100 nM	8890 nM	
C[C@](c1ccc(F)cc1)(c1c[nH]c2c(NS(C)(=O)=O)cccc12)C1CC1	313 nM	7.5 nM	387 nM	115 nM		> 1100 nM	590 nM	
C[C@@](c1ccc(F)cc1F)(c1c[nH]c2c(NS(C)(=O)=O)cccc12)C1CC1	163 nM					> 1100 nM	700 nM	Active
CC(=O)S[C@@H]1CC2=CC(=O)CC[C@]2(C)[C@H]2CC[C@@]3(C)[C@@H](CC[C@@]34CCC(=O)O4)[C@H]12 [SPIRONOLACTONE]			32.6 nM			> 1100 nM		
C[C@@](c1ccc(F)cc1)(c1c[nH]c2c(NS(C)(=O)=O)cccc12)C1CC1	137 nM	1.56 nM	167 nM	38.2 nM		> 1100 nM	849 nM	inactive
